What was measured:
[1] = target: Myosin light chain kinase 2, skeletal/cardiac muscle (Homo sapiens) (UniProt Q9H1R3); assay: Residual activity of human MLCK2/MYLK2 using KKLNRTLSFAEPG as substrate at 1 uM in presence of 32P-ATP by Hotspot assay relative to control
[2] = target: T1, cGMP-dependent protein kinase 2 (Homo sapiens) (UniProt Q13237); assay: Inhibition of human PKG2/PRKG2 using LRRASLG as substrate at 1 uM in presence of 32P-ATP by Hotspot assay relative to control; values are per cent of control
T1 sequence (whole entry): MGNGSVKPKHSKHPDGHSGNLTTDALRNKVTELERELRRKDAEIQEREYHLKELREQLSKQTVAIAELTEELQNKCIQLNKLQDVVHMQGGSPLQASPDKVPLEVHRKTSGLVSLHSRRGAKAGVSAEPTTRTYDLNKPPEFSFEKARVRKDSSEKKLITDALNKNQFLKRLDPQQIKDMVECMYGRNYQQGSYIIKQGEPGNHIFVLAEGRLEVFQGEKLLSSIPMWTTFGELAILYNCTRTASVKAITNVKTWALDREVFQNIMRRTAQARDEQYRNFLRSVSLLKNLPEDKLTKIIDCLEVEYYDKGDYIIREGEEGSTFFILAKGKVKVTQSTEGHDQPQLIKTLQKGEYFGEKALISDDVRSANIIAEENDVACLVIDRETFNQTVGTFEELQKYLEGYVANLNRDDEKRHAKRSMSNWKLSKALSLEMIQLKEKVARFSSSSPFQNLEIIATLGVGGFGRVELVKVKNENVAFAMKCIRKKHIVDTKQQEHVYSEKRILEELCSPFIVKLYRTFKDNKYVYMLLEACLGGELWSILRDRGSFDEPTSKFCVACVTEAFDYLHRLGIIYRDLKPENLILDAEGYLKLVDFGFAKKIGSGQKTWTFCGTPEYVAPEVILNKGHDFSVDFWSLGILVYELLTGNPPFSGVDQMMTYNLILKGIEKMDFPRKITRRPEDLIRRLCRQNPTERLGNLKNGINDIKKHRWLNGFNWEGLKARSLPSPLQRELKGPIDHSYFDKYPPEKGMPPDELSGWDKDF

[3] = target: Tyrosine-protein kinase Srms (Homo sapiens) (UniProt Q9H3Y6); assay: Inhibition of human SRMS using poly[Glu:Tyr] (4:1) as substrate at 1 uM in presence of 32P-ATP by Hotspot assay relative to control; values are per cent of control
[4] = target: Fibroblast growth factor receptor 1 (Homo sapiens) (UniProt P11362); assay: Inhibition of human FGFR1 using poly[Glu:Tyr] (4:1) as substrate at 1 uM in presence of 32P-ATP by Hotspot assay relative to control; values are per cent of control
[5] = target: T2, Megakaryocyte-associated tyrosine-protein kinase (Homo sapiens) (UniProt P42679); assay: Inhibition of human CTK/MATK using poly[Glu:Tyr] (4:1) as substrate at 1 uM in presence of 32P-ATP by Hotspot assay relative to control; values are per cent of control
T2 sequence (whole entry): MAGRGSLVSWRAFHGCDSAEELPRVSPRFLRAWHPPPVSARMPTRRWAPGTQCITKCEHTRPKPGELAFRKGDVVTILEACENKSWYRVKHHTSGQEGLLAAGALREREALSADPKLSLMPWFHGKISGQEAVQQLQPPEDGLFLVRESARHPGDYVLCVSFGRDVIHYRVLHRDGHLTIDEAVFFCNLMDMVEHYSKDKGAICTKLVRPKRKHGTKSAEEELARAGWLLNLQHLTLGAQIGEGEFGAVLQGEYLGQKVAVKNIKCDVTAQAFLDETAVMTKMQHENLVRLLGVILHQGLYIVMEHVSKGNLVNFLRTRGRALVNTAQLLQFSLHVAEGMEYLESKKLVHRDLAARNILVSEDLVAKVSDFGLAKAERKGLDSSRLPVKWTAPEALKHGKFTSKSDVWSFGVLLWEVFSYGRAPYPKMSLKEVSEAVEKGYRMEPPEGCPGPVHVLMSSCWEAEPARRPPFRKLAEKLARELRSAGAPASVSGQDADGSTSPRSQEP

[6] = target: T3, Tyrosine-protein kinase receptor TYRO3 (Homo sapiens) (UniProt Q06418); assay: Inhibition of human TYRO3/SKY using poly[Glu:Tyr] (4:1) as substrate at 1 uM in presence of 32P-ATP by Hotspot assay relative to control; values are per cent of control
T3 sequence (whole entry): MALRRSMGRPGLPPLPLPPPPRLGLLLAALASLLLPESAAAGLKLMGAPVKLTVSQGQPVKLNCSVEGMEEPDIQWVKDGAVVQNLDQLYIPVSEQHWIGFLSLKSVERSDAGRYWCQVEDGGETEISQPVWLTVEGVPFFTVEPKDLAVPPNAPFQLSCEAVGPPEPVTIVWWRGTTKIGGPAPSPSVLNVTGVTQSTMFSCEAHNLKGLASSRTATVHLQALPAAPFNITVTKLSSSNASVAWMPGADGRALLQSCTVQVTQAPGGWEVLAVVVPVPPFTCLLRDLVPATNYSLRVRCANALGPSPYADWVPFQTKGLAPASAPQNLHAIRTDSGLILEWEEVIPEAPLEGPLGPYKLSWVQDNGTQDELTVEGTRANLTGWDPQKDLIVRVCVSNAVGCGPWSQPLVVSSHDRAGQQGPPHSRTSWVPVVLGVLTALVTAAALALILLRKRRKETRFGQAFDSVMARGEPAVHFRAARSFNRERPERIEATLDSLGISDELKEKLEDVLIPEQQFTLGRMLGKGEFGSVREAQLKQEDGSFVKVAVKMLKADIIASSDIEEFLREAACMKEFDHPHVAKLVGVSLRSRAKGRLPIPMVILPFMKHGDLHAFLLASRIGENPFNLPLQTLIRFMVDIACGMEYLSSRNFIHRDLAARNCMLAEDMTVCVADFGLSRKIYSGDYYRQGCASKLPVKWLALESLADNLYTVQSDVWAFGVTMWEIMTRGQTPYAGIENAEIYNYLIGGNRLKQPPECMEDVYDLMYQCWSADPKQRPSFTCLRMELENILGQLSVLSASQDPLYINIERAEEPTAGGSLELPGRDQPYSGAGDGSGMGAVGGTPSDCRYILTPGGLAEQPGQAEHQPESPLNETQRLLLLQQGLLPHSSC

[7] = target: Mitogen-activated protein kinase kinase kinase kinase 4 (Homo sapiens) (UniProt O95819); assay: Inhibition of human HGK/MAP4K4 using myelin basic protein as substrate at 1 uM in presence of 32P-ATP by Hotspot assay relative to control; values are per cent of control
Sequence of Mitogen-activated protein kinase kinase kinase kinase 4 (Homo sapiens) (O95819 2-1239 limits assumed): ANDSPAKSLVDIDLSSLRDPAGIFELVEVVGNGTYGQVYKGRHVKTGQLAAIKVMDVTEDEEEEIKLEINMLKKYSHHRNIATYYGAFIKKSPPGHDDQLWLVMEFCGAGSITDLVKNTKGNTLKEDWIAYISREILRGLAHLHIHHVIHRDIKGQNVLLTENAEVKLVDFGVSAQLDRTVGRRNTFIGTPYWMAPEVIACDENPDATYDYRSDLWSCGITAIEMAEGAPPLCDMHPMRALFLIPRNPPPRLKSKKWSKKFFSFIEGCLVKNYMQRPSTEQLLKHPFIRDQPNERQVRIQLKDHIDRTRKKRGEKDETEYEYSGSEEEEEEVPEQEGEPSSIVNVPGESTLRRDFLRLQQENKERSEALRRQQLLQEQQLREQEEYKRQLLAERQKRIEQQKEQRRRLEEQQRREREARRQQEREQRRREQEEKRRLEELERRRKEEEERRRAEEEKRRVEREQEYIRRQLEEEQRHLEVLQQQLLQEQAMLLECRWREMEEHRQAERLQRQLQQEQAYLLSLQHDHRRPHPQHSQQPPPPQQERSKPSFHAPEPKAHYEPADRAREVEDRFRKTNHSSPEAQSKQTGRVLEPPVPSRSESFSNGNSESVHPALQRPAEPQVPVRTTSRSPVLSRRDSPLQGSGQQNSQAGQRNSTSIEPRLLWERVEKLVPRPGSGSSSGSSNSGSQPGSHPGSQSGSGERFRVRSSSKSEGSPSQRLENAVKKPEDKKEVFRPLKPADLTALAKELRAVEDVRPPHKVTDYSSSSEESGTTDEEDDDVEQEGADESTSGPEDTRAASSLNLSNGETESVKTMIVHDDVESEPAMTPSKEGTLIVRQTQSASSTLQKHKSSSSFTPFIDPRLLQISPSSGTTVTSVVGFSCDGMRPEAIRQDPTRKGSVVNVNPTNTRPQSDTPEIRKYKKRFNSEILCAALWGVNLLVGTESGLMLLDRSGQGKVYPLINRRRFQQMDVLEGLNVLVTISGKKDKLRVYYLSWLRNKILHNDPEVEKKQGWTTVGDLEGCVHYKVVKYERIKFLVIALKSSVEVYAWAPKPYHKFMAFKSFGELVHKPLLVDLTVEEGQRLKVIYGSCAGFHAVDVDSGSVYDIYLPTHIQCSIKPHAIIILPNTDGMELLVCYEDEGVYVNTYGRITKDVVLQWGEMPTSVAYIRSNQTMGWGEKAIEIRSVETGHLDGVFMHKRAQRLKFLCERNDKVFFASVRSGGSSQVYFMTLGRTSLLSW

Sequence of Myosin light chain kinase 2, skeletal/cardiac muscle (Homo sapiens) (Q9H1R3 whole entry): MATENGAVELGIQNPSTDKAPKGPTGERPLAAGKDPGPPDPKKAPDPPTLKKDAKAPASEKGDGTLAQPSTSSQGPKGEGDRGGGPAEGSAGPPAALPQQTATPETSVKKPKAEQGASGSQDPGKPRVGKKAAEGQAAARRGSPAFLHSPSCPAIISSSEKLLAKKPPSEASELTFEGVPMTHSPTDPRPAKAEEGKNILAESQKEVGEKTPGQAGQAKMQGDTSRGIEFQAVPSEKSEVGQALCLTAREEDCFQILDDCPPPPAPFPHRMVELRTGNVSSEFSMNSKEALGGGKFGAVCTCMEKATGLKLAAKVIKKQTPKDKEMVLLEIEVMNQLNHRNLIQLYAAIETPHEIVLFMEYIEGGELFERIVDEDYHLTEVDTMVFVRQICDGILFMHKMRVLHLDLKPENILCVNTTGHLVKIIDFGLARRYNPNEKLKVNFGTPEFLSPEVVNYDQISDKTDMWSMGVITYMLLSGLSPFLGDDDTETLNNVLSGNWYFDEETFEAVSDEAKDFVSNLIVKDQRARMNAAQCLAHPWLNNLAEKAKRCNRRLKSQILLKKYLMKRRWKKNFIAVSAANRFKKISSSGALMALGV
Sequence of Fibroblast growth factor receptor 1 (Homo sapiens) (P11362 22-822 limits assumed): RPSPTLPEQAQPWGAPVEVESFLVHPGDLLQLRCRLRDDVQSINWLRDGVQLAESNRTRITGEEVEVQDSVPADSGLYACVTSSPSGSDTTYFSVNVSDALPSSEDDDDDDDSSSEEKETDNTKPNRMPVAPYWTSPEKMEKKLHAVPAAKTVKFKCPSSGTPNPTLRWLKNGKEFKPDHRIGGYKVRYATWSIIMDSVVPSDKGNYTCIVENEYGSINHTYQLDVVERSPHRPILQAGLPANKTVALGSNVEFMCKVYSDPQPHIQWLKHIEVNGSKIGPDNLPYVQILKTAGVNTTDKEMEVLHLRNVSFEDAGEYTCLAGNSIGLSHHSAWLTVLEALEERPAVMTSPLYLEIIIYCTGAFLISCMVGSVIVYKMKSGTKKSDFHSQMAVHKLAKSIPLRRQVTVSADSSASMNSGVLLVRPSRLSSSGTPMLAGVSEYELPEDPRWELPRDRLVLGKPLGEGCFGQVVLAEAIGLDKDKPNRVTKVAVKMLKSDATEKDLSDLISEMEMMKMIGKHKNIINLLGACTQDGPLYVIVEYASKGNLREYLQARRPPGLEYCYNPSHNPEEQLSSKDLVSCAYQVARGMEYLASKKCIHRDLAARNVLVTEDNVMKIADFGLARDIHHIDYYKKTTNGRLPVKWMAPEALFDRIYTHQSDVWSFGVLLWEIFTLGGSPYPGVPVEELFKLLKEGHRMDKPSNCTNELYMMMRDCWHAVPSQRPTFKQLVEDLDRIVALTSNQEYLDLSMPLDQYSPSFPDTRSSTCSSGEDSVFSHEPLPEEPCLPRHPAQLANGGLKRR
Sequence of Tyrosine-protein kinase Srms (Homo sapiens) (Q9H3Y6 whole entry): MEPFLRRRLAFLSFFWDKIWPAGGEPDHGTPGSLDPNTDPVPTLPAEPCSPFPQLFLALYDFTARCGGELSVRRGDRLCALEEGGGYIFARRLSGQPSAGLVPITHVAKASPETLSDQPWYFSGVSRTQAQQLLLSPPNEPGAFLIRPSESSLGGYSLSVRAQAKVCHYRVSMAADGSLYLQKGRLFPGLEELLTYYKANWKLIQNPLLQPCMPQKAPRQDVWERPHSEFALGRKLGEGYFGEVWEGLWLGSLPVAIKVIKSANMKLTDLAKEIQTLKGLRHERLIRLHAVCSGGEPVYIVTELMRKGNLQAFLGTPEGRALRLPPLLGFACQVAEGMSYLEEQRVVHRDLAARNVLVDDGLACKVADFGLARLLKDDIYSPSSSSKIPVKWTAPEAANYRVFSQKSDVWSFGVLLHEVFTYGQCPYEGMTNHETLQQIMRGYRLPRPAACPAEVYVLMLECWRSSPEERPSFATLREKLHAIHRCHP

Structure (SMILES) | residual activity [1] | residual activity [2] | residual activity [3] | residual activity [4] | residual activity [5] | residual activity [6] | residual activity [7]
Cc1cc(-c2cnc(N)c3c(-c4ccc5scnc5c4)csc23)n(C)n1 | 88.1% | 70.1% | 78.8% | 59.1% | 79.2% | 100% | 21.2%
CC(C)S(=O)(=O)c1ccc2nccc(Nc3ccc4scnc4c3)c2c1 | 94.8% | 94.6% | 77.1% | 63.3% | 98.5% | 84.6% | 83%
CNC(=O)c1ccc2c(c1)ncn2-c1ccc(CC(=O)OC(C)(C)C)cc1 | 88.9% | 96.7% | 105% | 56.4% | 93.7% | 99.3% | 102%
